Experimental data as given in patent US10934303B2, “Aryl ethene derivative and pharmaceutical composition containing same as active ingredient” (priority 2016, dated 2021).
Read-outs that look alike come from different tables or passages of the source.

Assays:
[1] = target: GST-bound ERR gamma ligand-binding domain (LBD) (Homo sapiens (Human), UniProt P62508); test: ERRγ binding assay (inverse agonist assay), TR-FRET
Procedure: 1) ERRγ Binding Assay (Inverse Agonist Assay)
(§2) The arylethene derivative of the present invention was sequentially added to a 384 well plate from a concentration of 10 μM to a final concentration of two-fold dilution. […] After all reagents were added, a reaction was carried out with gentle shaking at 20° C. for 1 hour, and after the reaction, a binding activity was measured by a TR-FRET method.

GST-bound ERR alpha LBD = GST-bound ERR alpha LBD (Homo sapiens (Human), UniProt P11474); settings: TR-FRET, PGC1a coactivator; read-out: Binding Assay, IC50 ERRα
GST-bound ERR alpha LBD, sequence (P11474 193-421): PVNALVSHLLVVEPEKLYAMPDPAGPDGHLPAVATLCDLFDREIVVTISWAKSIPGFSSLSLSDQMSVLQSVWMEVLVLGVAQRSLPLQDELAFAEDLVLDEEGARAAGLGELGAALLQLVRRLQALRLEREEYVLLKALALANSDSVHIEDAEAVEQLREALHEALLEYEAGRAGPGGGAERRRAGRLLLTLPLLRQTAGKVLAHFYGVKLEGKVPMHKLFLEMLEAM
Procedure: as §2

[2] = target: GST-bound ER alpha ligand-binding domain (LBD) (Homo sapiens (Human), UniProt P03372); test: biochemical; settings: TR-FRET, beta-estradiol 4 nM as agonist; read-out: Binding Assay, IC50 ERα
GST-bound ER alpha ligand-binding domain (LBD), sequence (P03372 whole entry, looked up, the tested form may be a part): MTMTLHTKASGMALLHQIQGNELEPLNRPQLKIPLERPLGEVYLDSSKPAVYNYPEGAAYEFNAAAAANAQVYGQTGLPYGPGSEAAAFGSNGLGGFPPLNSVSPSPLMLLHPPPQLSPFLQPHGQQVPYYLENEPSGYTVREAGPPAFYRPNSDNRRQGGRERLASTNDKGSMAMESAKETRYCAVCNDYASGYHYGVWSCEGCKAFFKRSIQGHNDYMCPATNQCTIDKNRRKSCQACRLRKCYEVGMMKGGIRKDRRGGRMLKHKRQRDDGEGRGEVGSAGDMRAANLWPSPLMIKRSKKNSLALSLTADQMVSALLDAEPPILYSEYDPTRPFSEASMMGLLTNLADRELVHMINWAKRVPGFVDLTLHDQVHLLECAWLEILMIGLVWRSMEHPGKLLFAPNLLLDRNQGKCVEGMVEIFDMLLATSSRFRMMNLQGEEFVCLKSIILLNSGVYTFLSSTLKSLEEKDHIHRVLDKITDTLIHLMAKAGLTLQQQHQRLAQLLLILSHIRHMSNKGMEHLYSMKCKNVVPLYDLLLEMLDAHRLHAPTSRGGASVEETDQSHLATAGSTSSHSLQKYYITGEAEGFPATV
Procedure: as §2

ERRγ = format: cell-based
CYP1A2 = CYP1A2 (Homo sapiens (Human), UniProt P05177); test: Cytochrome P450 activity inhibition, CYP1A2; format: in vitro ADME; settings: 10 μM, human liver microsomes, Phenacetin substrate
CYP1A2, sequence (P05177 whole entry): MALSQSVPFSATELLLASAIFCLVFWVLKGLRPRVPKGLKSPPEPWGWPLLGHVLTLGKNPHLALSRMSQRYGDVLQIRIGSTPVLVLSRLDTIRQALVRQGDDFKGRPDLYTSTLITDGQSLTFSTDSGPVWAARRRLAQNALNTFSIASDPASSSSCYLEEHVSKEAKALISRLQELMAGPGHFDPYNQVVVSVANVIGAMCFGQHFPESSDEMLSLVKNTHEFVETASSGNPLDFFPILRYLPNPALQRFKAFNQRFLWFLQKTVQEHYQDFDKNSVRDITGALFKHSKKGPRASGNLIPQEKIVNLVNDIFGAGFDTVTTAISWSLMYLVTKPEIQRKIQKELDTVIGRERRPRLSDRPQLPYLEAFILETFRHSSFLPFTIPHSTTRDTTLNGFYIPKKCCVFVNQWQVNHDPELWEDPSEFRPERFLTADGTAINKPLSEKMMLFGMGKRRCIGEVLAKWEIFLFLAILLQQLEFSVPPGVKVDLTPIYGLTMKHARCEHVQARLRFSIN
Source text: (§1) 1) Cytochrome P450 (CYP450) Activity Inhibition Evaluation

CYP2C9 = CYP2C9 (Homo sapiens (Human), UniProt P11712); test: Cytochrome P450 activity inhibition, CYP2C9; format: in vitro ADME; settings: 10 μM, human liver microsomes, Diclofenac substrate
CYP2C9, sequence (P11712 whole entry): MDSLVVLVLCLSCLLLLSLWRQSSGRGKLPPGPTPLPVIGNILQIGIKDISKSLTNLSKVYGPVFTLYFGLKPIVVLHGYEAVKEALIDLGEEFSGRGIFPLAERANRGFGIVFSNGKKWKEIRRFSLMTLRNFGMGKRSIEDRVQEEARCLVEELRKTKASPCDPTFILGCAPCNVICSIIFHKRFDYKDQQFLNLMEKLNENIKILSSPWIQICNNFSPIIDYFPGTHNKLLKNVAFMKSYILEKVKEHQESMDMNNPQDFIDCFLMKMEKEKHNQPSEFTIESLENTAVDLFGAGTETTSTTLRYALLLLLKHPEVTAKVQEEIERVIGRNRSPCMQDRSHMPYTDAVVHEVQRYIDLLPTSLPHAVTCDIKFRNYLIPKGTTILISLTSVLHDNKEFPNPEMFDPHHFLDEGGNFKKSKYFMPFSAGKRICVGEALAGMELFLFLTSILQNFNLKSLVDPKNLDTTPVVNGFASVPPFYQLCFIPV
Source text: as §1

CYP2C19 = CYP2C19 (Homo sapiens (Human), UniProt P33261); test: Cytochrome P450 activity inhibition, CYP2C19; format: in vitro ADME; settings: 10 μM, human liver microsomes, S-mephenytoin substrate
CYP2C19, sequence (P33261 whole entry): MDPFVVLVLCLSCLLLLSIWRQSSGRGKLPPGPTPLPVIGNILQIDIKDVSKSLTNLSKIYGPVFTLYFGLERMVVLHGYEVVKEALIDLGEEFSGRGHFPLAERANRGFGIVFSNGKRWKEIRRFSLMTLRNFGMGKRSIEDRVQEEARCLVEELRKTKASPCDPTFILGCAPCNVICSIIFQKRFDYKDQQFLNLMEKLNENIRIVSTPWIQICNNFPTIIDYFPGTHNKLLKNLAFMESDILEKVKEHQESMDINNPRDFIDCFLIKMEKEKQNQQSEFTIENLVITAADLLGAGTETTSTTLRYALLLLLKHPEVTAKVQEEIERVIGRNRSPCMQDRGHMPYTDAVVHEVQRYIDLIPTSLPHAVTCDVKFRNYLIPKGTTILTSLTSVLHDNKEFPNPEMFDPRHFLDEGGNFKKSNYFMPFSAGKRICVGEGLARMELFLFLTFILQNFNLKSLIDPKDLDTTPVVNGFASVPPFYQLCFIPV
Source text: as §1

CYP2D6 = CYP2D6 (Homo sapiens (Human), UniProt P10635); test: Cytochrome P450 activity inhibition, CYP2D6; format: in vitro ADME; settings: 10 μM, human liver microsomes, Dextromethorphan substrate
CYP2D6, sequence (P10635 whole entry): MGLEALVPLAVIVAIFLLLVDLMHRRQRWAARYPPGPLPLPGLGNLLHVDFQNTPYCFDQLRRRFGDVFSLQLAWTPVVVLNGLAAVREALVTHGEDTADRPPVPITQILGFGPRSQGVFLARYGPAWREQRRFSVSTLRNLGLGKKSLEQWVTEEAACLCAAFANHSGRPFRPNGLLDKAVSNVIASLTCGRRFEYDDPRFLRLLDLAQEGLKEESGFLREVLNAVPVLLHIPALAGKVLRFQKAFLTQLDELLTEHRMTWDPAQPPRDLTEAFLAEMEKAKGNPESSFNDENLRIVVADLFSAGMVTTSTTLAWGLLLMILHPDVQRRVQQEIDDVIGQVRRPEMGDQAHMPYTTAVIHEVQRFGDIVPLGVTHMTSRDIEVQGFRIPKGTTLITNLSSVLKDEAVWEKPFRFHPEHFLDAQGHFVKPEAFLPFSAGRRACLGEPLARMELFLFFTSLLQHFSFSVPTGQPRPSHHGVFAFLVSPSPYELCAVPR
Source text: as §1

CYP3A4 = CYP3A4 (Homo sapiens (Human), UniProt P08684); test: Cytochrome P450 activity inhibition, CYP3A4; format: in vitro ADME; settings: 10 μM, human liver microsomes, Midazolam substrate
CYP3A4, sequence (P08684 whole entry): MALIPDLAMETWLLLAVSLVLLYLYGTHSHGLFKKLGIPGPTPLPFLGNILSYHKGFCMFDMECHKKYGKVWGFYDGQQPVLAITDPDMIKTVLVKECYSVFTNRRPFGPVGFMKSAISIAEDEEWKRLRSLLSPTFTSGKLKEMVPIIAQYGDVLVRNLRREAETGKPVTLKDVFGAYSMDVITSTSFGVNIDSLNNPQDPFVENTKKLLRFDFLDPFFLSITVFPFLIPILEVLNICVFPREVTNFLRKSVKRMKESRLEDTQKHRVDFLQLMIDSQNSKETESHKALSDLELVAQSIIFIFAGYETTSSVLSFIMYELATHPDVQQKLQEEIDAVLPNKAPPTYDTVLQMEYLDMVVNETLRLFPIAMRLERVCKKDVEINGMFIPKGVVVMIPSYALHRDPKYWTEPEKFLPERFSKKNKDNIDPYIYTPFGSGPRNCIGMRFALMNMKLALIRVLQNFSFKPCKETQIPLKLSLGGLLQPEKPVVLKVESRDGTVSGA
Source text: as §1

in vitro = in vitro ADME; parameters: Papp at 5 h: dose or concentration left out as unconfirmed; settings: PBS pH 7.4, 25° C.; for Permeability Pampa: 5 hours
[3] = 1 μM, 30 minutes, 37° C., NADPH
[4] = 1 μM, 30 minutes, 37° C., NADPH; remark: listed apart in the source
Procedure: 2) Microsomal Stability Evaluation
(§3) Four liver microsomes (Human, Dog, Rat, Mouse 0.5 mg/ml) with a 0.1 M phosphate buffer solution (pH 7.4), and the arylethene derivative of the present invention were added to a concentration of 1 μM, culturing was performed at 37° C. for 5 minutes in advance, a NADPH regeneration system solution was added thereto, and culturing was performed at 37° C. for 30 minutes. Thereafter, in order to complete the reaction, an acetonitrile solution containing an internal standard material (chlorpropamide) was added thereto, centrifugation (14,000 rpm, 4° C.) was performed for 5 minutes, and a supernatant was injected into a LC-MS/MS system to analyze the substrate drug, thereby evaluating metabolism stability to the arylethene derivative of the present invention.

hERG channel = hERG channel (Homo sapiens (Human), UniProt Q12809); settings: read-out: hERG IC50; fluorescence polarization assay
[5] = 1 μM, 30 minutes, 37° C., NADPH; remark: listed apart in the source
Procedure: 2) Microsomal Stability Evaluation
as §3

[6] = 1 μM, 30 minutes, 37° C., NADPH; remark: listed apart in the source
Procedure: 2) Microsomal Stability Evaluation
as §3

in vivo = format: in vivo; settings: rat
[7] = TR-FRET, PGC1a coactivator, read-out: Binding Assay, IC50 ERRγ
[8] = activity relative to reference compound GSK5182, 10 μM

GST-bound ERR gamma ligand-binding domain (LBD), sequence (P62508 233-457): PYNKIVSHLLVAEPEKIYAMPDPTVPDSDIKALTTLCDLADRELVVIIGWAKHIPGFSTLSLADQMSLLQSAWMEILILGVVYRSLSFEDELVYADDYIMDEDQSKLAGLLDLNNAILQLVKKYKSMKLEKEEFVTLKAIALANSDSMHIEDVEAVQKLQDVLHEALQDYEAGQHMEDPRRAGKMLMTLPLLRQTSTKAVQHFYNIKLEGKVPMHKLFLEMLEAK

| SMILES | IC50 [1, 7] [µM] | IC50 (GST-bound ERR alpha LBD) [µM] | IC50 [2] [µM] | Functional Assay at 10 μM (% of control), Cpds (ERRγ; 10 μM, 24 hours, AD293) | Functional Assay, Cpds/Ref 5182 (ERRγ; [8]) | CYP inhibition (% of control) 1A2 (CYP1A2) | CYP inhibition (% of control) 2C9 (CYP2C9) | CYP inhibition (% of control) 2C19 (CYP2C19) | CYP inhibition (% of control) 2D6 (CYP2D6) | CYP inhibition (% of control) 3A4 (CYP3A4) | Permeability Pampa (in vitro) | MS(Microsomal Stability) (%) human [3] [%] | MS(Microsomal Stability) (%) rat [4] [%] | IC50 (hERG channel) [µM] | MS(Microsomal Stability) (%) dog [5] [%] | MS(Microsomal Stability) (%) mouse [6] [%] | also measured |
| --- | --- | --- | --- | --- | --- | --- | --- | --- | --- | --- | --- | --- | --- | --- | --- | --- | --- |
| OCCC/C(=C(\c1ccc(O)cc1)c1ccc(OCCN2CCCC2)cc1)c1ccccc1 [Compound 6e] | 0.067 | > 10 | 0.408 | 5.61 % of control |  |  |  |  |  |  |  |  |  |  |  |  | Functional Assay, Cpds/Ref 5182 (ERRγ): 1.82 |
| CN1CCN(c2ccc(/C(=C(/CCCO)c3ccccc3)c3ccc([N+](=O)[O-])cc3)cc2)CC1 [Compound 18c] |  |  |  | 1.31 % of control | 0.42 | 92.2 % of control | 81.7 % of control | 80 % of control | 75.6 % of control | 64.1 % of control | 5.73 10^−6 cm/s | 96.9 | 72.8 | 11.6 |  |  |  |
| CC(C)N1CCN(c2ccc(/C(=C(/CCCO)c3ccccc3)c3ccc([N+](=O)[O-])cc3)cc2)CC1 [Compound 18g] |  |  |  | 1.62 % of control | 0.84 |  |  |  |  |  | 4.8 10^−6 cm/s | 87.9 | 85.3 | 17.9 | 84.9 | 84.1 |  |
| CC(C)N1CCN(c2ccc(/C(=C(/CCCO)c3ccccc3)c3ccc(Br)cc3)cc2)CC1 [Compound 18h] | 0.032 | > 10 | > 10 | 4.47 % of control | 1.09 | 93.5 % of control | 96.9 % of control | 86.3 % of control | 71.5 % of control | 64.5 % of control | 0.37 10^−6 cm/s | >100 | 74.2 |  | 64.4 | 48.5 |  |
| CCN1CCN(c2ccc(/C(=C(/CCCO)c3ccccc3)c3ccc(C)cc3)cc2)CC1 [Compound 18j] | 0.025 | > 10 | > 10 | 3.28 % of control | 1.21 | >100 % of control | 87 % of control | 74 % of control | 86.6 % of control | 77.6 % of control | 1.61 10^−6 cm/s | 67.9 | 62.8 |  | 58.0 | 54.9 | AUCINF (in vivo; IV, 1 mg/kg): 0.60 μMh; AUCall (in vivo; IV, 1 mg/kg): 0.55 μMh; Cl(observed)/F (in vivo; IV, 1 mg/kg): 59 mL/min/kg; Vss (in vivo; IV, 1 mg/kg): 9.8 L/kg; t1/2 (in vivo; IV, 1 mg/kg): 3.2 h; AUCINF (in vivo; PO, 10 mg/kg): 1.61 μMh; AUCall (in vivo; PO, 10 mg/kg): 1.07 μMh; BA (in vivo; PO, 10 mg/kg): 19.6%; Tmax (in vivo; PO, 10 mg/kg): 3 h; Cmax (in vivo; PO, 10 mg/kg, read-out: Cmax): 210 nM |
| Cc1ccc(/C(=C(\CCCO)c2ccccc2)c2ccc(C3CNC3)cc2)cc1 [Compound 20d] |  |  |  |  |  |  |  |  |  |  | 0.23 10^−6 cm/s | 83 | 54 | 15 |  | 11.3 |  |
| OCCC/C(=C(\c1ccc(O)cc1)c1ccc(C2CN(C3CC3)C2)cc1)c1ccccc1 [Compound 22d] |  |  |  |  |  | >100 % of control | >100 % of control | >100 % of control | 82.5 % of control | 66.1 % of control | 0.38 10^−6 cm/s | 57.6 | 60.2 | 6 |  |  |  |
| OCCC/C(=C(\c1ccc(O)cc1)c1ccc(C2=CCN(C3CC3)CC2)cc1)c1ccccc1 [Compound 22j] |  |  |  |  |  | 95.7 % of control | 88 % of control | 89.6 % of control | 97.1 % of control | 85 % of control |  | 65.2 | 65.5 | 8.8 | 54.9 | 34.9 |  |
| OCCC/C(=C(\c1ccc(O)cc1)c1ccc(N2CCN(C3CCCC3)CC2)cc1)c1ccccc1 [Compound 22n] |  |  |  | 3.47 % of control | 1.28 | 99 % of control | 97.4 % of control | 83 % of control | 82.6 % of control | 88.3 % of control |  | 56.3 | 47.8 | 14.6 | 72.0 | 37.8 |  |
| OCCC/C(=C(\c1ccc(O)cc1)c1ccc(N2CCN(C3CCCCC3)CC2)cc1)c1ccccc1 [Compound 22p] | 0.099 | 9.7 | 2.12 |  |  | 88.1 % of control | 81.8 % of control | 61.5 % of control | 79.6 % of control | 90.6 % of control | 0.2 10^−6 cm/s | 72.3 | 75.3 |  | 77.7 | 40.4 |  |
| OCCC/C(=C(\c1ccc(O)cc1)c1ccc(N2CCN(C3CCC3)CC2)cc1)c1ccccc1 [Compound 22q] | 0.053 | > 10 | 1.66 |  |  | 99.9 % of control | 77.7 % of control | 92.8 % of control | 77.6 % of control | 81 % of control | 0.77 10^−6 cm/s | 63.7 | 67.6 |  | 43.8 | 17.6 |  |
| CC(C)N1CCN(c2ccc(/C(=C(/CCCO)c3ccccc3)c3ccc(NS(C)(=O)=O)cc3)cc2)CC1 [Compound 27a, (E)-N-(4-(5-hydroxy-1-(4-(4-isopropylpiperazin-1-yl)phenyl)-2-phenylpent-1-en-1-yl)phenyl)methanesulfonamide] |  |  |  |  |  |  |  |  |  |  |  | 66.2 | 65.0 |  | 50.3 | 32.7 | IC50 [1]: 0.026 µM; Functional Assay at 10 μM (% of control), Cpds (ERRγ): 2.1 % of control; Functional Assay, Cpds/Ref 5182 (ERRγ): 0.77; Papp at 5 h (in vitro; PAMPA, read-out: Permeability Pampa): 2.22 ×10⁻⁶ cm/s |
